Values after ≈ are worked out from the molar mass of the structure shown.

13 compounds from DBAASP can be followed below.

Among the test systems are Candida albicans; Escherichia coli UB1005; Enterococcus faecium; Staphylococcus aureus.
What all share (test): ≥ marks a high value that may be exact or a test limit, other limits are often not marked, values filed in µg/mL are converted to µM
Assay [1] relates to Candida albicans NCYC 1467.
The test system of assay [2] is Escherichia coli NCTC 10418.
In assay [3] the test system is Staphylococcus aureus NCTC 10788.
The subject of assay [4] is Pseudomonas aeruginosa Ps4.
In assay [5] the test system is Escherichia coli ATCC 11775.
Assay [6] has as its system Staphylococcus aureus ATCC 12600.
In assay [7] the test system is Enterococcus faecalis ATCC 29212.
The subject of assay [8] is Pseudomonas aeruginosa H103.
For assay [9], the system named is Salmonella enterica serovar Typhimurium.
Assay [10] has as its system Staphylococcus aureus ATCC 25923.
The test system of assay [11] is Staphylococcus epidermidis.
For assay [12], the system named is Bacillus subtilis KCTC 3068.
For assay [13], the system named is Escherichia coli KCTC 1682.
Assay [14] relates to Pseudomonas aeruginosa KCTC 1637.
Assay [15] concerns Salmonella typhimurium KCTC 1926.
Assay [16] has as its system Staphylococcus aureus KCTC 1621.
The subject of assay [17] is Staphylococcus epidermidis KCTC 1917.
Assay [18] deals with Escherichia coli ATCC 25922.
Assay [19] concerns Pseudomonas aeruginosa PAO1.

What is called MIC is the lowest concentration found to suppress growth. A low value points to a more susceptible organism. Consider `CC[C@H](C)[C@H](NC(=O)[C@H](CC(=O)O)NC(=O)[C@H](CCCCN)NC(=O)[C@H](Cc1c[nH]c2ccccc12)NC(=O)[C@H](CC(C)C)NC(=O)[C@H](C)N)C(=O)N[C@@H](CC(C)C)C(=O)N[C@@H](CCCCN)C(=O)N[C@@H](CC(N)=O)C(=O)N[C@@H](CC(C)C)C(=O)N[C@@H](CC(C)C)C(=O)N[C@@H](CCCCN)C(=O)N[C@@H](C)C(=O)N[C@@H](C)C(=O)N[C@@H](CC(C)C)C(=O)N[C@@H](CC(N)=O)C(=O)N[C@@H](CCC(=O)O)C(=O)N[C@H](C(=O)N[C@@H](CC(N)=O)C(=O)N[C@@H](CCC(N)=O)C(=O)N[C@H](C(=O)N[C@H](C(=O)N[C@@H](CCC(N)=O)C(N)=O)C(C)C)[C@@H](C)CC)[C@@H](C)CC` [ALWKDILKNLLKAALNEINQIVQ], for which the minimum inhibitory concentration (MIC) turned out to be 16 µM (≈ 42.4 µg/mL) in assay [1], 16 µM (≈ 42.4 µg/mL) in assay [2] and 8 µM (≈ 21.2 µg/mL) in assay [3].

Compound `CC[C@H](C)[C@H](NC(=O)[C@H](CC(N)=O)NC(=O)[C@H](CCCN=C(N)N)NC(=O)[C@@H](NC(=O)[C@H](Cc1c[nH]c2ccccc12)NC(=O)[C@@H](N)Cc1ccccc1)C(C)C)C(=O)N[C@@H](CCCN=C(N)N)C(=O)N[C@@H](CCCCN)C(=O)N[C@H](C(=O)N[C@@H](CCCN=C(N)N)C(N)=O)C(C)C` [FWVRNIRKVR] yielded a minimal inhibitory concentration (MIC) in [4] of at least 250 µM.

Regarding `CC[C@H](C)[C@H](N)C(=O)N[C@H](C(=O)N1CCC[C@H]1C(=O)N[C@@H](CC(C)C)C(=O)N1CCC[C@H]1C(=O)N[C@@H](CC(C)C)C(=O)NCC(=O)N[C@@H](Cc1ccc(O)cc1)C(=O)N[C@@H](Cc1ccccc1)C(=O)N[C@@H](C)C(=O)N[C@@H](CCCCN)C(=O)N[C@@H](CCCCN)C(=O)N[C@H](C(=O)O)[C@@H](C)O)[C@@H](C)CC` [IIPLPLGYFAKKT], the MIC in [5] turned out to be 3 µM (≈ 4.38 µg/mL); in assay [6], 6 µM (≈ 8.76 µg/mL).

As for `CC[C@H](C)[C@H](NC(=O)[C@@H](NC(=O)[C@H](Cc1c[nH]c2ccccc12)NC(=O)[C@@H](NC(=O)[C@@H](N)CCCCN)[C@@H](C)CC)C(C)C)C(=O)N[C@@H](CCCN=C(N)N)C(=O)N[C@@H](Cc1c[nH]c2ccccc12)C(=O)N[C@@H](CCCN=C(N)N)C(N)=O` [KIWVIRWR], the MIC worked out at 13.8 µM (≈ 16 µg/mL) in the assay with Candida albicans; 13.8 µM (≈ 16 µg/mL) in assay [7]; 6.92 µM (≈ 7.99 µg/mL) with Escherichia coli UB1005; 13.8 µM (≈ 16 µg/mL) in [8]; 26.8 µM (≈ 31 µg/mL) in assay [9]; 13.8 µM (≈ 16 µg/mL) in assay [10]. In addition, the minimum inhibitory concentration (MIC) in assay [11] was determined as 3.46 µM (≈ 4 µg/mL).

As to `C[C@@H](O)[C@H](NC(=O)[C@H](Cc1c[nH]c2ccccc12)NC(=O)[C@H](Cc1c[nH]c2ccccc12)NC(=O)[C@@H](NC(=O)[C@H](CCCCN)NC(=O)[C@H](Cc1c[nH]c2ccccc12)NC(=O)[C@H](Cc1c[nH]c2ccccc12)NC(=O)[C@@H](NC(=O)[C@H](CCCCN)NC(=O)[C@@H](N)CCCCN)[C@@H](C)O)[C@@H](C)O)C(=O)N[C@@H](CCCCN)C(=O)N[C@@H](Cc1c[nH]c2ccccc12)C(=O)O` [KKTWWKTWWTKW], the MIC in [12] was 2 µM (≈ 3.53 µg/mL); in [13], 4 µM (≈ 7.06 µg/mL); in [14], 8 µM (≈ 14.1 µg/mL); in [15], 4 µM (≈ 7.06 µg/mL); in [16], 4 µM (≈ 7.06 µg/mL); in assay [17], 4 µM (≈ 7.06 µg/mL).

For `CC[C@H](C)[C@H](NC(=O)[C@H](CCCCN)NC(=O)[C@H](CC(C)C)NC(=O)[C@H](CC(C)C)NC(=O)[C@@H](N)CCCCN)C(=O)N[C@H](C(=O)N[C@H](C(=O)N[C@H](C(=O)N[C@@H](CCCCN)C(=O)N[C@H](C(=O)N[C@@H](CC(C)C)C(=O)N[C@@H](CCCCN)C(N)=O)C(C)C)[C@@H](C)CC)C(C)C)C(C)C` [KLLKIVVIKVLK], the MIC in assay [12] is 8.97 µM (≈ 12.5 µg/mL); in assay [13], 8.97 µM (≈ 12.5 µg/mL); in assay [14] it was 8.97 µM (≈ 12.5 µg/mL); in [15], 4.48 µM (≈ 6.25 µg/mL); in assay [16], 8.97 µM (≈ 12.5 µg/mL); in assay [17], 8.97 µM (≈ 12.5 µg/mL).

On to `CC[C@H](C)[C@H](NC(=O)[C@H](CCCN=C(N)N)NC(=O)[C@H](Cc1c[nH]c2ccccc12)NC(=O)[C@H](CCC(N)=O)NC(=O)[C@@H](N)CCCCN)C(=O)N[C@@H](CCCN=C(N)N)C(=O)N[C@H](C(=O)N[C@@H](C)C(=O)N[C@H](C(=O)N[C@H](C(=O)N[C@@H](CCCN=C(N)N)C(=O)N[C@@H](C)C(=O)O)[C@@H](C)CC)C(C)C)C(C)C` [KQWRIRVAVIRA], for which the MIC is 21.4 µM (≈ 32 µg/mL) in [18], 85.6 µM (≈ 128 µg/mL) in assay [19], at least 42.8 µM in assay [9] and 21.4 µM (≈ 32 µg/mL) in assay [10].

Regarding `CC[C@H](C)[C@H](NC(=O)[C@H](C)NC(=O)[C@H](CC(C)C)NC(=O)[C@@H]1CCCN1C(=O)[C@@H](NC(=O)[C@H](CCSC)NC(=O)CNC(=O)[C@H](CC(C)C)NC(=O)[C@@H](N)CC(C)C)[C@@H](C)CC)C(=O)N[C@@H](CO)C(=O)N[C@@H](C)C(=O)N[C@H](C(=O)N[C@@H](CO)C(=O)N[C@@H](CO)C(=O)N[C@@H](CC(C)C)C(=O)N[C@@H](CO)C(=O)N[C@@H](CCCCN)C(=O)N[C@@H](CC(C)C)C(N)=O)[C@@H](C)CC` [LLGMIPLAISAISSLSKL], the values for the MIC in [1] and in [3] were at least 35 µM and 17.5 µM (≈ 32 µg/mL), respectively.

With `CC[C@H](C)[C@H](NC(=O)[C@H](CCCN=C(N)N)NC(=O)[C@H](CCCN=C(N)N)NC(=O)[C@H](CC(C)C)NC(=O)[C@@H](N)CCCN=C(N)N)C(=O)N[C@H](C(=O)N[C@H](C(=O)N[C@H](C(=O)N[C@@H](CCCN=C(N)N)C(=O)N[C@H](C(=O)N[C@@H](Cc1ccccc1)C(=O)N[C@@H](CCCN=C(N)N)C(=O)O)C(C)C)[C@@H](C)CC)C(C)C)C(C)C` [RLRRIVVIRVFR], the minimum inhibitory concentration (MIC) amounted to 16 µM (≈ 25.3 µg/mL) in the assay with Candida albicans; 2 µM (≈ 3.17 µg/mL) in assay [7]; 4 µM (≈ 6.33 µg/mL) with Escherichia coli UB1005; 8 µM (≈ 12.7 µg/mL) in assay [8]; 4 µM (≈ 6.33 µg/mL) in assay [9]; 1 µM (≈ 1.58 µg/mL) in assay [10]. In assay [11], this compound returned a minimal inhibitory concentration (MIC) of 0.5 µM (≈ 0.792 µg/mL).

Turning to `CC[C@H](C)[C@H](NC(=O)[C@@H](NC(=O)[C@@H](NC(=O)[C@H](CCCN=C(N)N)NC(=O)[C@H](CCCN=C(N)N)NC(=O)[C@H](CCC(N)=O)NC(=O)[C@@H](N)CCCN=C(N)N)C(C)C)C(C)C)C(=O)N[C@@H](Cc1c[nH]c2ccccc12)C(=O)N[C@@H](Cc1c[nH]c2ccccc12)C(=O)O` [RQRRVVIWW], the MIC with Candida albicans is 21.4 µM (≈ 27.8 µg/mL); in [7], 5.3 µM (≈ 6.88 µg/mL); against Escherichia coli UB1005, 1.3 µM (≈ 1.69 µg/mL); in [8], 10.7 µM (≈ 13.9 µg/mL); in assay [9], 5.3 µM (≈ 6.88 µg/mL); in assay [10], 2.7 µM (≈ 3.51 µg/mL). The same compound gave an MIC in assay [11] of 1.3 µM (≈ 1.69 µg/mL).

For the compound `NC(=O)[C@H](CCCN=C(N)N)NC(=O)[C@H](CCCN=C(N)N)NC(=O)[C@H](Cc1c[nH]c2ccccc12)NC(=O)[C@@H]1CCCN1C(=O)[C@H](Cc1c[nH]c2ccccc12)NC(=O)[C@H](Cc1c[nH]c2ccccc12)NC(=O)[C@@H]1CCCN1C(=O)[C@H](Cc1c[nH]c2ccccc12)NC(=O)[C@H](CCCN=C(N)N)NC(=O)[C@@H](N)CCCN=C(N)N` [RRWPWWPWRR], the minimum inhibitory concentration (MIC) in assay [12] is 1.26 µM (≈ 2 µg/mL); with Enterococcus faecium it was 1.79 µM (≈ 2.83 µg/mL); in assay [13] it was 1.26 µM (≈ 2 µg/mL); in [15], 2.53 µM (≈ 4 µg/mL); in [16], 1.26 µM (≈ 2 µg/mL); with Staphylococcus aureus it was 2.53 µM (≈ 4 µg/mL).

`CC[C@H](C)[C@H](NC(=O)[C@H](CC(N)=O)NC(=O)[C@H](CCCN=C(N)N)NC(=O)[C@H](CCC(N)=O)NC(=O)[C@H](Cc1c[nH]c2ccccc12)NC(=O)[C@H](CCCN=C(N)N)NC(=O)[C@@H](N)CCCN=C(N)N)C(=O)N[C@@H](CCCN=C(N)N)C(=O)N[C@@H](CCCCN)C(=O)N[C@H](C(=O)N[C@@H](CCCN=C(N)N)C(=O)N[C@@H](CCCN=C(N)N)C(N)=O)C(C)C` [RRWQRNIRKVRR] showed a minimal inhibitory concentration (MIC) in assay [4] of at least 145 µM.

Compound `CC[C@H](C)[C@H](NC(=O)[C@H](CC(N)=O)NC(=O)[C@H](CCCN=C(N)N)NC(=O)[C@H](CCC(N)=O)NC(=O)[C@H](Cc1c[nH]c2ccccc12)NC(=O)[C@@H](N)CCCN=C(N)N)C(=O)N[C@@H](CCCN=C(N)N)C(=O)N[C@@H](CCCCN)C(=O)N[C@H](C(=O)N[C@@H](CCCN=C(N)N)C(=O)N[C@@H](CCCN=C(N)N)C(N)=O)C(C)C` [RWQRNIRKVRR] returned a minimal inhibitory concentration (MIC) in [4] of at least 159 µM.
